Like-named read-outs stand apart in the source and are kept apart here.
Target: T1, Chk1 (Homo sapiens, UniProt O14757)
T1 construct: purchased Upstate Biotechnology
T1 sequence (O14757 1-476): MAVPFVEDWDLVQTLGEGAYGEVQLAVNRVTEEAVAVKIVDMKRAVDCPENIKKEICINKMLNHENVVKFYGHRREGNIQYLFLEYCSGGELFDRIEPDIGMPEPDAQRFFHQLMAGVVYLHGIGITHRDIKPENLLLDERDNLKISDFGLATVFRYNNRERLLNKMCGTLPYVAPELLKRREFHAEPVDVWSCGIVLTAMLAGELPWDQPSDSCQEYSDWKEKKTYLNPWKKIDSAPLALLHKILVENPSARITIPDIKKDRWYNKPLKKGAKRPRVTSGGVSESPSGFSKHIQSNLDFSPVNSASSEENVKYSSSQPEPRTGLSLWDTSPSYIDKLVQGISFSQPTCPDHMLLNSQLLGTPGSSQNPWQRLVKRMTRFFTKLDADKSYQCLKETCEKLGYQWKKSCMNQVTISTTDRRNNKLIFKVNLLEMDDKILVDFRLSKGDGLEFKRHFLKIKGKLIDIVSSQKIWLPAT
Test: Chk1 kinase assay: incorporation of γ-33P ATP into immobilized myelin basic protein
Format: biochemical
Settings: read-out: Chk1 IC50
Method in brief: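 Chk1 (10 nM) or Chk2 (20 nM) phosphorylated plate-immobilized myelin basic protein for 1 h at room temperature in Hepes pH 7.6 buffer with MgCl2, DTT, 1% DMSO, γ-33P ATP plus 10 μM (Chk1) or 30 μM (Chk2) unlabeled ATP. Bound radioactivity counted by scintillation; IC50 determined, Ki derivable from IC50.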

[1] = Table 11, Chk1 only, class symbols A-D

IC50 [nM] | SMILES | other results
50 to 1000 | CNC(=O)c1nc(-c2cccc(CNCc3ccc(S(C)(=O)=O)cc3)c2)cnc1N [Example 392, 3-amino-N-methyl-6-{3-[({[4-(methylsulfonyl)phenyl]methyl}amino)methyl]phenyl}pyrazine-2-carboxamide] | 
 | Nc1ncc(-c2cccc(CNC(=O)Nc3ccc(OC(F)(F)F)cc3)c2)nc1C(=O)N[C@H]1CCCNC1 [Example 930, 3-amino-N-[(3S)-piperidin-3-yl]-6-[3-({[({4-[(trifluoromethyl)oxy]phenyl}amino)carbonyl]amino}methyl)phenyl]pyrazine-2-carboxamide] | IC50 [1]: < 50 nM
50 to 1000 | CNC(=O)c1nc(-c2cccc(C(=O)NCC(c3ccccc3)c3ccccc3)c2)cnc1N [Example 263, 3-amino-6-(3-{[(2,2-diphenylethyl)amino]carbonyl}phenyl)-N-methylpyrazine-2-carboxamide] | 
50 to 1000 | CNC(=O)c1nc(-c2cccc(C(=O)NCc3ccc(N)cc3)c2)cnc1N [Example 230, 3-amino-6-[3-({[(4-aminophenyl)methyl]amino}carbonyl)phenyl]-N-methylpyrazine-2-carboxamide] | 
50 to 1000 | CNC(=O)c1nc(-c2ccc(O)cc2)cnc1N [Example 236, 3-amino-6-(4-hydroxyphenyl)-N-methylpyrazine-2-carboxamide] | 
 | COC(=O)C1CCCN(C(=O)c2nc(-c3cccc(C(=O)NCc4ccccc4)c3)cnc2N)C1 (centres unmarked) [Example 591, methyl 1-{[3-amino-6-(3-{[(phenylmethyl)amino]carbonyl}phenyl)pyrazin-2-yl]carbonyl}piperidine-3-carboxylate] | IC50 (Table 11, Chk1 only): ≥ 10000 nM
50 to 1000 | CNC(=O)c1nc(-c2cccc(NC(=O)Nc3ccc(OC)cc3)c2)cnc1N [Example 90, 3-amino-N-methyl-6-{3-[({[4-(methyloxy)phenyl]amino}carbonyl)amino]phenyl}pyrazine-2-carboxamide] | 
1000 to 10000 | CNC(=O)c1nc(-c2cccc(C(=O)NC(C)(C)c3ccccc3)c2)cnc1N [Example 225, 3-amino-N-methyl-6-(3-{[(1-methyl-1-phenylethyl)amino]carbonyl}phenyl)pyrazine-2-carboxamide] | 
50 to 1000 | CNC(=O)c1nc(-c2cccc(C(=O)NCc3c(Cl)cccc3Oc3ccccc3)c2)cnc1N [Example 247, 3-amino-6-{3-[({[2-chloro-6-(phenyloxy)phenyl]methyl}amino)carbonyl]phenyl}-N-methylpyrazine-2-carboxamide] | 
 | Nc1cc(-c2n[nH]c(-c3nc(-c4cccc(CN[C@H]5CCc6ccccc65)c4)cnc3N)n2)ccn1 [Example 946, 3-[3-(2-aminopyridin-4-yl)-1H-1,2,4-triazol-5-yl]-5-(3-{[(1S)-2,3-dihydro-1H-inden-1-ylamino]methyl}phenyl)pyrazin-2-amine] | IC50 [1]: < 50 nM
1000 to 10000 | CNC(=O)c1nc(-c2cccc(OCCN3CCOCC3)c2)cnc1N [Example 185, 3-amino-N-methyl-6-{3-[(2-morpholin-4-ylethyl)oxy]phenyl}pyrazine-2-carboxamide] | 
 | COc1ccc(CNC(=O)c2cccc(-c3cnc(N)c(C(=O)N[C@H]4CCCNC4)n3)c2)c(OC)c1 [Example 856, 3-amino-6-{3-[({[2,4-bis(methyloxy)phenyl]methyl}amino)carbonyl]phenyl}-N-[(3S)-piperidin-3-yl]pyrazine-2-carboxamide] | IC50 [1]: < 50 nM
 | Nc1ncc(-c2cccc(C(=O)NCc3ccccc3F)c2)nc1-c1nnc([C@H]2CCCNC2)[nH]1 [Example 834, 3-(5-amino-6-{5-[(3S)-piperidin-3-yl]-4H-1,2,4-triazol-3-yl}pyrazin-2-yl)-N-[(2-fluorophenyl)methyl]benzamide] | IC50 [1]: < 50 nM
50 to 1000 | CNC(=O)c1nc(-c2cccc(CNC(=O)CSc3ccc(N)cc3)c2)cnc1N [Example 347, 3-amino-6-{3-[({[(4-aminophenyl)thio]acetyl}amino)methyl]phenyl}-N-methylpyrazine-2-carboxamide] | 
 | Nc1ncc(-c2cccc(C(=O)NCc3ccc(-c4csnn4)cc3)c2)nc1C(=O)N[C@H]1CCCNC1 [Example 963, 3-amino-N-[(3S)-piperidin-3-yl]-6-{3-[({[4-(1,2,3-thiadiazol-4-yl)phenyl]methyl}amino)carbonyl]phenyl}pyrazine-2-carboxamide] | IC50 [1]: < 50 nM
1000 to 10000 | CNC(=O)c1nc(-c2ccc(C(C)=O)cc2)cnc1N [Example 79, 6-(4-acetylphenyl)-3-amino-N-methylpyrazine-2-carboxamide] | 

IC50 [nM] | SMILES | other results
50 to 1000 | CNC(=O)c1nc(-c2cccc(C(=O)NCc3cc(Cl)ccc3Cl)c2)cnc1N [Example 248, 3-amino-6-[3-({[(2,5-dichlorophenyl)methyl]amino}carbonyl)phenyl]-N-methylpyrazine-2-carboxamide] | 
50 to 1000 | CNC(=O)c1nc(-c2cccc(C(=O)NCc3ccc(O)c(OC)c3)c2)cnc1N [Example 244, 3-amino-6-{3-[({[4-hydroxy-3-(methyloxy)phenyl]methyl}amino)carbonyl]phenyl}-N-methylpyrazine-2-carboxamide] | 
50 to 1000 | CNC(=O)c1nc(-c2cccc(C(=O)N[C@@H]3CCN(Cc4cccc(OC)c4)C3)c2)cnc1NCc1cccc(OC)c1 [Example 361, N-methyl-3-({[3-(methyloxy)phenyl]methyl}amino)-6-(3-{[((3R)-1-{[3-(methyloxy)phenyl]methyl}pyrrolidin-3-yl)amino]carbonyl}phenyl)pyrazine-2-carboxamide] | 
50 to 1000 | CNC(=O)c1nc(-c2cccc(NC(=O)c3ccc(OC)cc3)c2)cnc1N [Example 106, 3-amino-N-methyl-6-[3-({[4-(methyloxy)phenyl]carbonyl}amino)phenyl]pyrazine-2-carboxamide] | 
50 to 1000 | CNC(=O)c1nc(-c2cccc(C(=O)NCCN3CCN(Cc4ccccc4)CC3)c2)cnc1N [Example 199, 3-amino-N-methyl-6-{3-[({2-[4-(phenylmethyl)piperazin-1-yl]ethyl}amino)carbonyl]phenyl}pyrazine-2-carboxamide] | 
50 to 1000 | CNC(=O)c1nc(-c2cccc(C(=O)NCC3CCNC3)c2)cnc1N (centres unmarked) [Example 366, 3-amino-N-methyl-6-(3-{[(pyrrolidin-3-ylmethyl)amino]carbonyl}phenyl)pyrazine-2-carboxamide] | 
 | Nc1ncc(-c2cccc(C(=O)NCc3ccc(Cl)cc3Cl)c2)nc1C(=O)N[C@H]1CCNC1 [Example 825, 3-amino-6-[3-({[(2,4-dichlorophenyl)methyl]amino}carbonyl)phenyl]-N-[(3S)-pyrrolidin-3-yl]pyrazine-2-carboxamide] | IC50 [1]: < 50 nM
 | Nc1ncc(-c2cccc(CO)c2)nc1-c1nc(-c2cccnc2)n[nH]1 [Example 580, {3-[5-amino-6-(3-pyridin-3-yl-1H-1,2,4-triazol-5-yl)pyrazin-2-yl]phenyl}methanol] | IC50 (Table 11, Chk1 only): 50 to 1000 nM
 | Nc1ncc(-c2cccc(CN[C@H]3CCc4ccccc43)c2)nc1C(=O)c1ccccc1 [Example 546, [3-amino-6-(3-{[(1S)-2,3-dihydro-1H-inden-1-ylamino]methyl}phenyl)pyrazin-2-yl](phenyl)methanone] | IC50 (Table 11, Chk1 only): 50 to 1000 nM
 | CC(C)(C)OC(=O)NC1CCN(C(=O)c2nc(-c3cccc(C(=O)NCc4ccccc4)c3)cnc2N)CC1 [Example 617, 1,1-dimethylethyl (1-{[3-amino-6-(3-{[(phenylmethyl)amino]carbonyl}phenyl)pyrazin-2-yl]carbonyl}piperidin-4-yl)carbamate] | IC50 (Table 11, Chk1 only): ≥ 10000 nM
50 to 1000 | CNC(=O)c1nc(-c2cccc(C(=O)NCc3ccc(Cl)c(C(F)(F)F)c3)c2)cnc1N [Example 229, 3-amino-6-{3-[({[4-chloro-3-(trifluoromethyl)phenyl]methyl}amino)carbonyl]phenyl}-N-methylpyrazine-2-carboxamide] | 
 | Nc1ncc(-c2cccc(C(=O)NCc3ccccc3)c2)nc1C(=O)c1cc(F)cc(F)c1 [Example 578, 3-{5-amino-6-[(3,5-difluorophenyl)carbonyl]pyrazin-2-yl}-N-(phenylmethyl)benzamide] | IC50 (Table 11, Chk1 only): ≥ 10000 nM
 | Nc1ncc(-c2cccc(C(=O)NCc3cccc(C(F)(F)F)c3F)c2)nc1C(=O)N[C@H]1CCCNC1 [Example 874, 3-amino-6-{3-[({[2-fluoro-3-(trifluoromethyl)phenyl]methyl}amino)carbonyl]phenyl}-N-[(3S)-piperidin-3-yl]pyrazine-2-carboxamide] | IC50 [1]: < 50 nM
 | CSc1ccc(CNC(=O)c2cccc(-c3cnc(N)c(C(=O)N[C@H]4CCNC4)n3)c2)cc1 [Example 747, 3-amino-6-{3-[({[4-(methylthio)phenyl]methyl}amino)carbonyl]phenyl}-N-[(3S)-pyrrolidin-3-yl]pyrazine-2-carboxamide] | IC50 (Table 11, Chk1 only): < 50 nM
 | CNC(=O)c1nc(-c2cccc(C(=O)NCc3ccccc3)c2)cnc1N [Example 441, 3-Amino-6-(3-benzylcarbamoyl-phenyl)-pyrazine-2-carboxylic acid methylamide] | IC50 (Table 11, Chk1 only): 50 to 1000 nM
 | Nc1ncc(-c2cccc(C(=O)NCCN3CCCCC3)c2)nc1C(=O)N[C@H]1CCCNC1 [Example 877, 3-amino-N-[(3S)-piperidin-3-yl]-6-(3-{[(2-piperidin-1-ylethyl)amino]carbonyl}phenyl)pyrazine-2-carboxamide] | IC50 [1]: < 50 nM

Source: patent US7704995B2 (Exelixis, Inc., priority 2003, dated 2010)
